This note sets out measurements from ChEMBL document CHEMBL3991601, “The target landscape of clinical kinase drugs” (Science, 2017).

The term Kd denotes the constant that tells how readily two partners part at equilibrium.

SMILES strings stand for the structures. Activity calls are given as the source filed them.

The target in assay [1] is T1, ATP-dependent RNA helicase DHX30 (Homo sapiens, UniProt Q7L2E3).
T1 sequence (Q7L2E3 whole entry): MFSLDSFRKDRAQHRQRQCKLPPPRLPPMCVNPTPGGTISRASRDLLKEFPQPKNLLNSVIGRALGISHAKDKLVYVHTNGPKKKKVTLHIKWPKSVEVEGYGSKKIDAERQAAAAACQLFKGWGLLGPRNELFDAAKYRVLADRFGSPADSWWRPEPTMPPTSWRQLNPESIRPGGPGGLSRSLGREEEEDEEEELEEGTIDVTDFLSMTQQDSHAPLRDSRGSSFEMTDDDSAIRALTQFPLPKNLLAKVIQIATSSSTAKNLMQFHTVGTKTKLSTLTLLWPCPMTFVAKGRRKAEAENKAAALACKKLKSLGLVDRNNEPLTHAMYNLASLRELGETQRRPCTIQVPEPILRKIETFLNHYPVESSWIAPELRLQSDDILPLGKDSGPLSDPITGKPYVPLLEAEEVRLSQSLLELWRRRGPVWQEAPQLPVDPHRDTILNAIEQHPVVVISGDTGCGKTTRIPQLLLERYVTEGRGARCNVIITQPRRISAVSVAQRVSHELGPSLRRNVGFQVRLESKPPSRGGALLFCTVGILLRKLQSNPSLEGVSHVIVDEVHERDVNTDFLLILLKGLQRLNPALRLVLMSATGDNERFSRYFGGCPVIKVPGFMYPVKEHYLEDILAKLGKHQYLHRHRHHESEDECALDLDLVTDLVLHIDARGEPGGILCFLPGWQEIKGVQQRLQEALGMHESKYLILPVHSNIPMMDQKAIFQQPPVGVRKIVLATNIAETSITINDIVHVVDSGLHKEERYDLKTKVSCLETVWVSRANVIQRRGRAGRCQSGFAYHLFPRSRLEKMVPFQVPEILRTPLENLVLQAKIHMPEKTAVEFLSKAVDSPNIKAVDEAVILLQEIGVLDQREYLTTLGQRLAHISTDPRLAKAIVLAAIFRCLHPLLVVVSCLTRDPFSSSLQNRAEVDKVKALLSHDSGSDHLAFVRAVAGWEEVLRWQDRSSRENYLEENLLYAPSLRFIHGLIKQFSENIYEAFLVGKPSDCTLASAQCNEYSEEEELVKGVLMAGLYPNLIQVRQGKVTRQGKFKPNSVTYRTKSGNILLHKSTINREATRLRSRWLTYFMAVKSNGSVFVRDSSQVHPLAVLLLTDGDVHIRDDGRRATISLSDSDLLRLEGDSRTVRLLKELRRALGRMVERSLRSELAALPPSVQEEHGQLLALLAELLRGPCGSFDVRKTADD

The target of assay [2] is Tyrosine-protein kinase Lck (Homo sapiens, UniProt P06239).
Tyrosine-protein kinase Lck, sequence (P06239 whole entry): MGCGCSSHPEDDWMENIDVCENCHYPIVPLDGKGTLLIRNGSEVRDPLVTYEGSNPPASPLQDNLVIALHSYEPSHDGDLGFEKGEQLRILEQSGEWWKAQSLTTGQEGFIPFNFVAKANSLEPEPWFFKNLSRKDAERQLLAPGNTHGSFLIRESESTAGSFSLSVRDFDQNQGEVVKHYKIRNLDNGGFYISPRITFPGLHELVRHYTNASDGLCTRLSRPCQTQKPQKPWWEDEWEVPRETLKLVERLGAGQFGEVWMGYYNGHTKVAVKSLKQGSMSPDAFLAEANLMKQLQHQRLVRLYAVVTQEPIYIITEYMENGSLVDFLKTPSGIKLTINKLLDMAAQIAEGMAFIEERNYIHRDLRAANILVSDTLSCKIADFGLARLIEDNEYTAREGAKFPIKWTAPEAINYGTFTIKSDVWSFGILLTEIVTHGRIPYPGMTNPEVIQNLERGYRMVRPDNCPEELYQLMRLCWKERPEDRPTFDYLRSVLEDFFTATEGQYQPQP
Assay [3] concerns the target Midasin (Homo sapiens, UniProt Q9NU22).
For assay [4], the target named is T2, ADP/ATP translocase 2 (Homo sapiens, UniProt P05141).
T2 sequence (P05141 whole entry): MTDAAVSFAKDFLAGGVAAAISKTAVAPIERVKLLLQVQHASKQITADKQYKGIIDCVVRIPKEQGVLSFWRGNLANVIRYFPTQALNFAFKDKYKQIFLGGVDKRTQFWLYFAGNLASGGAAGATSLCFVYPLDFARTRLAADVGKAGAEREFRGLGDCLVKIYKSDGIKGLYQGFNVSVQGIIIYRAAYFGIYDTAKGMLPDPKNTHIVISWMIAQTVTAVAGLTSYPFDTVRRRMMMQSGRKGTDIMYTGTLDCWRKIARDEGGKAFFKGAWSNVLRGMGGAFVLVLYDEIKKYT

The target of assay [5] is T3, Beta-adrenergic receptor kinase 1 (Homo sapiens, UniProt P25098).
T3 sequence (P25098 whole entry): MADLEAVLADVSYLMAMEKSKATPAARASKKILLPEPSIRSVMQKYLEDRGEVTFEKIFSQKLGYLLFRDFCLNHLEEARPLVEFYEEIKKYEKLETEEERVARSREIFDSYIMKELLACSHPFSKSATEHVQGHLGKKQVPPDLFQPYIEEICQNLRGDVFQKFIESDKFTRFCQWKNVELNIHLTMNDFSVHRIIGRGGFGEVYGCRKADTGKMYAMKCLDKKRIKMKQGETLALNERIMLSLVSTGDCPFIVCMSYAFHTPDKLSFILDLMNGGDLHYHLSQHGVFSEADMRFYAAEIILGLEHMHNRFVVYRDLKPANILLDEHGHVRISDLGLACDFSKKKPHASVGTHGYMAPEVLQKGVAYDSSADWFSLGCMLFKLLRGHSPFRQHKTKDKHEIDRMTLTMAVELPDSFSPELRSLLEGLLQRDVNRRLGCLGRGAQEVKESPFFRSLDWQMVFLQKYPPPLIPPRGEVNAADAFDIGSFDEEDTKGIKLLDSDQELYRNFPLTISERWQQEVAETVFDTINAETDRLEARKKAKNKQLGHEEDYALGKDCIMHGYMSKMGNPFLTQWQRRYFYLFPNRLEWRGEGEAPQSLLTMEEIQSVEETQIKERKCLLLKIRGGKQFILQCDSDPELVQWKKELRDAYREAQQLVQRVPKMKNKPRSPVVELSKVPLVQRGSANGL

For assay [6], the target named is Glycogen synthase kinase-3 alpha (Homo sapiens, UniProt P49840).
Glycogen synthase kinase-3 alpha, sequence (P49840 whole entry): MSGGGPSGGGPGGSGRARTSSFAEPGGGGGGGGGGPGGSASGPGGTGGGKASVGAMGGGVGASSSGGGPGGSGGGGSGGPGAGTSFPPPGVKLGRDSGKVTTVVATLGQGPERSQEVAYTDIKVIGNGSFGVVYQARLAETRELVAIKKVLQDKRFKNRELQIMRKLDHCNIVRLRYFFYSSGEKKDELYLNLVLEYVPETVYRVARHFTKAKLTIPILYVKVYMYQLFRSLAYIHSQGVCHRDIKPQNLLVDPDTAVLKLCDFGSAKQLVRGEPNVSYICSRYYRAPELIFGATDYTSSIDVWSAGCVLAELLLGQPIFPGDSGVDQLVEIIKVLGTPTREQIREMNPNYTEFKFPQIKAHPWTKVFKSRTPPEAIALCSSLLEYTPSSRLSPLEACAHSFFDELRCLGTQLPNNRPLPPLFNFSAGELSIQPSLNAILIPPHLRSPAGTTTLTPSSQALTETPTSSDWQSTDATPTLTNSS
Assay [7] deals with Ribosomal protein S6 kinase alpha-3 (Homo sapiens, UniProt P51812).
Ribosomal protein S6 kinase alpha-3, sequence (P51812 whole entry): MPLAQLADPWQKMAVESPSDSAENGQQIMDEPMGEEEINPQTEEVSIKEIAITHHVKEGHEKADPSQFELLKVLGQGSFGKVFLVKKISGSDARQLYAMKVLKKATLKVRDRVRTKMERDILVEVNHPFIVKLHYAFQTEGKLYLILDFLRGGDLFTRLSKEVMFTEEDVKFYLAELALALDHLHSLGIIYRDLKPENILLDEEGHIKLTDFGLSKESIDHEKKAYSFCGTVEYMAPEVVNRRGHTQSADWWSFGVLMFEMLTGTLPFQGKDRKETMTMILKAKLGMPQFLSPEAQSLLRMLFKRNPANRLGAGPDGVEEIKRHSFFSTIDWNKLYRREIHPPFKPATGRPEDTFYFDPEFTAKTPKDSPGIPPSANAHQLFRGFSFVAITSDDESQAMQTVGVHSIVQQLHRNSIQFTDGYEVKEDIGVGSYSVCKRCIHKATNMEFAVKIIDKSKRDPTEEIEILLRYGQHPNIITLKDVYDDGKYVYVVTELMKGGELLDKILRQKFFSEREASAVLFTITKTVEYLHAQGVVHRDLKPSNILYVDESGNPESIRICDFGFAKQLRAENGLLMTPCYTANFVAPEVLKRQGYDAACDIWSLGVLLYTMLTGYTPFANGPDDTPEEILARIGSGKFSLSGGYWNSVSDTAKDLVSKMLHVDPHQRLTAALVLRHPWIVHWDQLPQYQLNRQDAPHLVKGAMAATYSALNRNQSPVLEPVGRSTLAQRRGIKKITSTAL
Also: in the data inactive means no Kd found up to 30 µM.

As to `O=c1[nH]ccc2cc(OC3CCNCC3)ccc12` [SAR-407899 FREE BASE], the Kd in assay [1], in assay [2], in assay [3], in assay [4], in assay [5] and in assay [6] was > 30 µM (inactive) in each case. For the same compound, the Kd in assay [7] was > 30 µM (inactive).
Turning to `Cn1cc(-c2cnn3c(N)c(Br)c([C@@H]4CCCNC4)nc23)cn1` [SCH-900776], the Kd in assay [1], in assay [2], in assay [3], in assay [4], in assay [5] and in assay [6] was > 30 µM (inactive) each time. Moreover, in assay [7], the Kd was > 30 µM (inactive).
For `CO[C@H]1C[C@@H]2CC[C@@H](C)[C@@](O)(O2)C(=O)C(=O)N2CCCC[C@H]2C(=O)O[C@H]([C@H](C)C[C@@H]2CC[C@@H](O)[C@H](OC)C2)CC(=O)[C@H](C)/C=C(\C)[C@@H](O)[C@@H](OC)C(=O)[C@H](C)C[C@H](C)/C=C/C=C/C=C/1C` [SIROLIMUS], the Kd in assay [1], in assay [2], in assay [3], in assay [4], in assay [5] and in assay [6] was > 30 µM (inactive) in each case. Further, in assay [7], the Kd was > 30 µM (inactive).
Consider `CO[C@H]1C[C@@H]2CC[C@@H](C)[C@@](O)(O2)C(=O)C(=O)N2CCCC[C@H]2C(=O)O[C@H]([C@H](C)C[C@@H]2CC[C@@H](OC(=O)C(C)(CO)CO)[C@H](OC)C2)CC(=O)[C@H](C)/C=C(\C)[C@@H](O)[C@@H](OC)C(=O)[C@H](C)C[C@H](C)/C=C/C=C/C=C/1C` [TEMSIROLIMUS], for which the Kd in assay [1], in assay [2], in assay [3], in assay [4], in assay [5] and in assay [6] was > 30 µM (inactive) each time. Also, in assay [7], the Kd is > 30 µM (inactive).
Consider `COc1cc2c(Nc3ccc(Cl)c(Cl)c3F)ncnc2cc1OC[C@@H]1C[C@@H]2CN(C)C[C@@H]2C1` [TESEVATINIB], for which the Kd in assay [1] is > 30 µM (inactive); in assay [2], 0.207 µM (active); in assay [3], > 30 µM (inactive); in assay [4] it was > 30 µM (inactive); in assay [5], > 30 µM (inactive); in assay [6], > 30 µM (inactive). In assay [7], the Kd was > 30 µM (inactive).
Regarding `O=C(Cc1ccc(-c2ccc(OCCN3CCOCC3)cc2)cn1)NCc1ccccc1` [TIRBANIBULIN], the Kd in assay [1], in assay [2], in assay [3], in assay [4], in assay [5] and in assay [6] was > 30 µM (inactive) in each case. Further, the Kd in assay [7] is > 30 µM (inactive).
`C[C@@H](NC(=O)c1ncnc(N)c1Cl)c1ncc(C(=O)Nc2cc(C(F)(F)F)c(Cl)cn2)s1` [TOVORAFENIB]: the Kd in assay [1], in assay [2], in assay [3], in assay [4], in assay [5] and in assay [6] was > 30 µM (inactive) each time. Further, in assay [7], the Kd is > 30 µM (inactive).
In the case of `Cc1cc(Nc2ncnc3ccc(NC4=NC(C)(C)CO4)cc23)ccc1Oc1ccn2ncnc2c1` [TUCATINIB], the Kd in assay [1], in assay [2], in assay [3], in assay [4], in assay [5] and in assay [6] was > 30 µM (inactive) throughout. The Kd in assay [7] is > 30 µM (inactive).
As for `Cn1ncc(Cl)c1-c1cc(C(=O)N[C@H](CN)Cc2ccc(F)c(F)c2)oc1Cl` [UPROSERTIB], the Kd in assay [1], in assay [2], in assay [3], in assay [4], in assay [5] and in assay [6] was > 30 µM (inactive) throughout. Further, the Kd in assay [7] was > 30 µM (inactive).
For the compound `CC(C)c1cc(CNc2nc(Nc3cc(C4CC4)[nH]n3)cc(N3CCN(C)CC3)n2)on1` [XL-228], the Kd in assay [1] was > 30 µM (inactive); in assay [2], 0.166 µM (active); in assay [3], > 30 µM (inactive); in assay [4], > 30 µM (inactive); in assay [5] it was > 30 µM (inactive); in assay [6] it was > 30 µM (inactive). Also, the Kd in assay [7] was > 30 µM (inactive).
For `C[C@@H](N)c1ccc(C(=O)Nc2ccnc3[nH]ccc23)cc1` [Y-39983], the Kd in assay [1] is > 30 µM (inactive); in assay [2] it was > 30 µM (inactive); in assay [3], > 30 µM (inactive); in assay [4], > 30 µM (inactive); in assay [5], > 30 µM (inactive); in assay [6] it was 1.1 µM (active). Also, in assay [7], the Kd was > 30 µM (inactive).
As to `CN1C/C=C/CCOc2cccc(c2)-c2ccnc(n2)Nc2cccc(c2)C1` [ZOTIRACICLIB], the Kd in assay [1] was > 30 µM (inactive); in assay [2], > 30 µM (inactive); in assay [3], > 30 µM (inactive); in assay [4], > 30 µM (inactive); in assay [5], > 30 µM (inactive); in assay [6], 0.579 µM (active). Besides, the Kd in assay [7] is > 30 µM (inactive).
